In PMC3057987 (PLoS ONE, 2011):
Ends that are not written are not given here.

T1: MDMX-p53 interaction (Homo sapiens, UniProt O15151)
T1 construct: the cDNA of MDMX (1–200 amino acids) was amplified by PCR; made in house; host or cells: MDMX: wheat germ cell-free translation system; p53: E. coli BL21 (DE3) codon+
T1 sequence (O15151 1-200): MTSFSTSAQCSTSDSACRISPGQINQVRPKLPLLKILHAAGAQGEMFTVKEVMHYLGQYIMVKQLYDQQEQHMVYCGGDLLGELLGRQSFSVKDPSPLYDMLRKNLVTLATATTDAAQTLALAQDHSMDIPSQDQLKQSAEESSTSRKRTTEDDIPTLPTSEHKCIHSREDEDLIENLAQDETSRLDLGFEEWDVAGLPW

T2: MDMX (1–200 amino acids) (human, UniProt O15151 1-200)
T2 construct: MDMX, residues 1-200, cDNA amplified from a Human Mosaic cDNA template; also called MDMX(1–200)-FLAG; source: in vitro translated (wheat germ cell-free translation system)
T2 sequence (looked up): T1 sequence (O15151 1-200)

B1: MIP (MDM2 Inhibitory Peptide), synthetic peptide (peptide)
peptide: PRFWEYWLRLME
notes: 12-mer selected by mRNA display from a partially randomized library; also called X12-1; source: synthetic peptide
B2: MIP (F3A), synthetic peptide (peptide)
peptide: PRAWEYWLRLME
notes: MIP with Phe3 replaced by Ala; source: synthetic peptide
B3: MIP (R9A), synthetic peptide (peptide)
peptide: PRFWEYWLALME
notes: MIP with Arg9 replaced by Ala; source: synthetic peptide
B4: MIP (L10A), synthetic peptide (peptide)
peptide: PRFWEYWLRAME
notes: MIP with Leu10 replaced by Ala; source: synthetic peptide
B5: MIP (M11A), synthetic peptide (peptide)
peptide: PRFWEYWLRLAE
notes: MIP with Met11 replaced by Ala; source: synthetic peptide

How the values were obtained:
[1] = tested on: p53 pathway in HCT116-p53+/+ cells; experiment: Activation of the p53 pathway (western blot, quantitative RT-PCR) in HCT116-p53+/+ cells; format: cell-based, human; conditions: plasmid transfection
Procedure: (§1) Figure 4 Functional analyses of GFP-MIP in living cells. […] (A) Immunoprecipitation assays with anti-GFP were performed followed by western blot with an anti-MDM2 antibody. I, input; F, flow-through; B, beads. (B) The whole cell lysates were analyzed by western blot with antibodies against p53, MDM2, p21 and β-actin. (C) mRNA levels of p53, MDM2, p21 and GAPDH were determined by quantitative reverse transcription-PCR using total RNA extracted from the cells. GAPDH was used for normalization.
Figure 5 Activation of the p53 pathway by inhibiting the MDM2-p53 interaction. […] After 48 h, immunoprecipitation assay with anti-FLAG antibody was performed followed by western blot with anti-MDM2 or anti-FLAG antibody. […] After 24 h, the whole cell lysates were analyzed by western blot with antibodies against p53, p21 and β-actin. […] After 24 h, mRNA levels of p53, MDM2, p21 and GAPDH were determined by quantitative reverse transcription-PCR using total RNA extracted from the cells. GAPDH was used for normalization.
(§2) Whole cell lysate was analyzed by western blot analysis with antibodies against p53 (Cell signaling, Beverly, MA, […]), MDM2 (SMP14, Santa Cruz), p21 (SX118, Pharmingen, San Diego, CA, USA) and β-actin (AC-15, Sigma). The blots were developed using an ECL chemiluminescence kit (GE Healthcare, Waukesha, WI, USA).
Total RNA was extracted with the RNeasy mini kit from cells. The RNA was used as template for the real-time RT-PCR reaction with the QuantiTect SYBR Green RT-PCR kit (Qiagen) using the p53F and p53R primer set, the mdm2F and mdm2R primer set or the p21F and p21R primer set. The GAPDH gene was used for normalization with the Light cycler primer sets (Roche, Basel, Switzerland).

[2] = tested on: p53 pathway in SW480 cells (p53 mt); experiment: Activation of the p53 pathway (western blot) in SW480 cells; format: cell-based; conditions: SW480 cells containing inactive mutated p53, plasmid transfection
Procedure: as §1, §2

HCT116-p53+/+ cells = experiment: WST-1 cell viability / cell growth assay in HCT116-p53+/+ cells; format: cell-based; conditions: plasmid transfection, data not shown
MDMX-p53 interaction = biological target: T1, MDMX-p53 interaction; experiment: ELISA of MDMX (1-200) bound to immobilized His6-p53 in the presence of synthetic peptides; format: binding
Procedure: (§3) The resulting plasmid was transformed into the E. coli strain BL21 (DE3) codon+. The cells were grown in LB with 50 µg/ml carbenicillin at 37°C to an optical density (OD600) of 0.5 and induced with 1 mM IPTG for 6 h. […] After washing with PBST, the plates were blocked with 5% skim milk at 4°C for 30 min. […] The RNA was purified with the RNeasy mini kit and in vitro-translated in a wheat germ cell-free translation system to produce MDMX protein.

MDM2-p53 interaction = biological target: T3, MDM2-p53 interaction (Homo sapiens, UniProt Q00987); experiment: ELISA of MDM2 (7-300) bound to immobilized His6-p53 in the presence of synthetic peptides; format: binding
T3 construct: In vitro-translated MDM2 (7–300 amino acids) mixed with the synthetic peptides; made in house; host or cells: MDM2: in vitro translated (wheat germ cell-free system for the bait preparation); p53: E. coli BL21 (DE3) codon+
Procedure: as §3

[3] = biological target: T4, MDM2_(7–300) fused to the TAP tag (human (A549 cell-derived cDNA library), UniProt Q00987 7-300); experiment: ELISA; competition: synthetic peptide at various concentrations mixed with in vitro-translated MDM2 (7–300) or MDMX (1–200) in binding buffer (5% skim milk, 10% glycerol), added to His6-p53 immobilized on copper-coated plates, 1 h at room temperature; detection with anti-MDM2 (SMP14) or anti-FLAG M2; conditions: one partner purified
T4 construct: MDM2, residues 7-300, cDNA amplified from an A549 cell-derived cDNA library; primers and plasmid are named MDM(1–294) / pCMV-MDM294-CBPzz; The ELISA methods name only 'in vitro-translated MDM2 (7–300 amino acids)'; also called TAP-tagged MDM2; MDM2 (7–300 amino acids); source: in vitro translated (wheat germ cell-free translation system); immobilised on IgG beads for the pull-down

MDMX (1–200 amino acids) = biological target: T2, MDMX (1–200 amino acids); experiment: as above; conditions: one partner purified

T4 sequence (Q00987 7-300): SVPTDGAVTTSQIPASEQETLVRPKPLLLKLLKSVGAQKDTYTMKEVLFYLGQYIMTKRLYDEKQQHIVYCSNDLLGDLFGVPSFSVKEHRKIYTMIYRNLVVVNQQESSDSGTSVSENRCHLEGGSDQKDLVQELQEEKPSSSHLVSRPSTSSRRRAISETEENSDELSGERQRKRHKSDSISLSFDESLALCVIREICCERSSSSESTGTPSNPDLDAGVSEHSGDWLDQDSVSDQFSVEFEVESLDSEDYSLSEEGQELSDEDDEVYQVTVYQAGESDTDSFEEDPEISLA

Molecule	IC50 (MDM2-p53 interaction) [nM]	IC50 [3] [nM]	other results
GFP-MIP: GFP-fused MIP (PRFWEYWLRLME; also: GFP-fused, end not given here)	–	–	MDM2 and p21 at the mRNA level ([1]; quantitative RT-PCR): increased; p53 mRNA level ([1]; quantitative RT-PCR): no effect; p53 and its targets (MDM2 and p21) at the protein level ([1]; western blot): increase; p53 and its targets (MDM2 and p21) at the protein level [2]: not; proliferation of cells expressing the GFP-fused peptide (HCT116-p53+/+ cells): not inhibited
LTAEHYAAQATS [3A, reference compound]	> 100000	–	IC50 (MDMX-p53 interaction): > 100000 nM
PRFWEAWLRLME [MIP (Y6A)]	> 100000	–	–
PRFWEYALRLME [MIP (W7A)]	> 100000	–	–
B1	–	10	IC50 (MDMX (1–200 amino acids)): 120 nM
B2	–	570	–
B3	–	20	–
B4	–	1140	–
B5	–	400	–
